“And” between values parts separate entries of the source, which are not always exact repeats. Equal entries are not always repeated. Toxic doses and inconclusive results are not listed. The calls were made as follows: active = survival T/C of 150% or more; inactive = T/C below 125% in these data.
Test system: P388 leukemia ip, CD2F1 mice, survival T/C
Test: NCI In Vivo Anticancer Drug Screen. Data for tumor model P388 Leukemia (intraperitoneal) in CD2F1 (CDF1) mice
Details: endpoint: median survival time, higher = longer survival
Method in brief: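 Mice carrying the transplanted tumor received test compound or vehicle. Survival was recorded in each group, and the value is the treated-group measurement divided by that of the vehicle-treated control group.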

[1] = dose: 25.0 mg/kg/injection, schedule: Q01DX009 (ip), vehicle: water
[2] = dose: 50.0 mg/kg/injection, schedule: Q01DX005 (ip), vehicle: saline with Tween-80
[3] = dose: 100.0 mg/kg/injection, schedule: Q01DX005 (ip), vehicle: saline with Tween-80
[4] = dose: 200.0 mg/kg/injection, schedule: Q01DX005 (ip), vehicle: saline with Tween-80

Measured: T/C

COC(=O)c1ccccc1NC(CCN1CCN(c2ccccc2)CC1)=NC(C)(C)C
inactive: dose: 50.0 mg/kg/injection, schedule: Q01DX009 (ip), vehicle: Klucel (hydroxypropylcellulose) (HPC) 100 % of control | dose: 100.0 mg/kg/injection, schedule: Q01DX009 (ip), vehicle: Klucel (hydroxypropylcellulose) (HPC) 102 % of control

CC1=C(c2ccccc2)OS(=O)(=O)NC1=O
inactive: [1] 114 % of control | dose: 50.0 mg/kg/injection, schedule: Q01DX009 (ip), vehicle: water 104 % of control | dose: 100.0 mg/kg/injection, schedule: Q01DX009 (ip), vehicle: water 106 % of control | dose: 200.0 mg/kg/injection, schedule: Q01DX009 (ip), vehicle: water 103 % of control | dose: 400.0 mg/kg/injection, schedule: Q01DX009 (ip), vehicle: water 113 % of control

Nc1ccc(C(=O)c2ccccc2)cc1
inactive: dose: 25.0 mg/kg/injection, schedule: Q01DX009 (ip), vehicle: saline with Tween-80 93 % of control | dose: 50.0 mg/kg/injection, schedule: Q01DX009 (ip), vehicle: saline with Tween-80 100 % of control | dose: 100.0 mg/kg/injection, schedule: Q01DX009 (ip), vehicle: saline with Tween-80 102 % of control

CCOC(=O)NC(=S)Nc1nonc1-c1ccccc1
inactive: dose: 60.0 mg/kg/injection, schedule: Q01DX005 (ip), vehicle: saline with Tween-80 96 % of control | dose: 120.0 mg/kg/injection, schedule: Q01DX005 (ip), vehicle: saline with Tween-80 100 % of control | dose: 240.0 mg/kg/injection, schedule: Q01DX005 (ip), vehicle: saline with Tween-80 97 % of control

CC(Cl)C(Cl)(Cl)/C=C\[N+](=O)[O-] (stereo not drawn)
inactive: dose: 50.0 mg/kg/injection, schedule: Q01DX009 (ip), vehicle: saline 103 % of control | dose: 100.0 mg/kg/injection, schedule: Q01DX009 (ip), vehicle: saline 102 % of control | dose: 200.0 mg/kg/injection, schedule: Q01DX009 (ip), vehicle: saline 98 % of control

O=C1C(=O)C(CN2CCOCC2)=C(N2CCOCC2)C(N2CCOCC2)=C1CN1CCOCC1
inactive: dose: 25.0 mg/kg/injection, schedule: Q01DX005 (ip), vehicle: saline with Tween-80 100 % of control | [2] 100 % of control | [3] 98 % of control | [4] 100 % of control

COSc1ccc([N+](=O)[O-])cc1
inactive: dose: 100.0 mg/kg/injection, schedule: Q04DX003 (ip), vehicle: Klucel (hydroxypropylcellulose) (HPC) 108 % of control | dose: 200.0 mg/kg/injection, schedule: Q04DX003 (ip), vehicle: Klucel (hydroxypropylcellulose) (HPC) 102 % of control | dose: 400.0 mg/kg/injection, schedule: Q04DX003 (ip), vehicle: Klucel (hydroxypropylcellulose) (HPC) 99 % of control

O=CC(O)C(O)C(O)COc1cc(CO)cc2c1C(=O)c1ccccc1C2=O (stereo not drawn)
inactive: dose: 12.5 mg/kg/injection, schedule: Q01DX005 (ip), vehicle: Klucel (hydroxypropylcellulose) (HPC) 100 % of control | dose: 25.0 mg/kg/injection, schedule: Q01DX005 (ip), vehicle: Klucel (hydroxypropylcellulose) (HPC) 107 % of control | dose: 50.0 mg/kg/injection, schedule: Q01DX005 (ip), vehicle: Klucel (hydroxypropylcellulose) (HPC) 106 % of control and 110 % of control | dose: 100.0 mg/kg/injection, schedule: Q01DX005 (ip), vehicle: Klucel (hydroxypropylcellulose) (HPC) 106 % of control and 107 % of control

CCCCCN(CCC)CCCCCCCCCN1CCCc2cc(OC)ccc21
inactive: dose: 50.0 mg/kg/injection, schedule: Q01DX005 (ip), vehicle: saline + Tween-80 + alcohol 105 % of control | dose: 100.0 mg/kg/injection, schedule: Q01DX005 (ip), vehicle: saline + Tween-80 + alcohol 110 % of control

CC(NNC(=S)N1CC2CCC(CC2)C1)c1cc2ccccc2cn1 (stereo not drawn)
inactive: [2] 114 % of control | [3] 112 % of control | [4] 121 % of control

CC[C@H]1CN2CCc3c([nH]c4ccccc34)[C@@H]2C[C@@H]1/C(=C\OC)C(=O)OC
inactive: [2] 108 % of control | [3] 108 % of control | [4] 108 % of control

COc1cccc2c1C(=O)c1c(O)c3c(c(O)c1C2=O)CC(O)(/C(C)=N/NS(=O)(=O)c1ccc(C)cc1)CC3OC1CC(N)C(O)C(C)O1 (stereo not drawn)
active: dose: 12.5 mg/kg/injection, schedule: Q01DX009 (ip), vehicle: water 153 % of control | [1] 179 % of control
inactive: dose: 0.78 mg/kg/injection, schedule: Q01DX009 (ip), vehicle: water 118 % of control | dose: 1.56 mg/kg/injection, schedule: Q01DX009 (ip), vehicle: water 113 % of control

CCC(C)OC(=S)SSC(=S)OC(C)CC (stereo not drawn)
inactive: dose: 25.0 mg/kg/injection, schedule: Q01DX009 (ip), vehicle: suspension in saline 105 % of control | dose: 50.0 mg/kg/injection, schedule: Q01DX009 (ip), vehicle: suspension in saline 96 % of control | dose: 100.0 mg/kg/injection, schedule: Q01DX009 (ip), vehicle: suspension in saline 98 % of control | dose: 200.0 mg/kg/injection, schedule: Q01DX009 (ip), vehicle: suspension in saline 109 % of control

From PubChem BioAssay AID330 (DTP/NCI, 2004)
